The text below walks through data of patent US8022075B2, “Diagnostic and remedy for disease caused by amyloid aggregation and/or deposition” (Fujifilm Ri Pharma Co., Ltd., priority 2005, dated 2011).

Read-outs that look alike come from different tables or passages of the source. A value given as a limit tells only on which side of the number the result lay.

Series [1] has as its target T1, synthetic amyloid β (1-40) aggregates (Homo sapiens, UniProt P05067). Put plainly: Inhibition of binding of compound 23 to amyloid β protein aggregates. On the set-up: amyloid β (1-40) peptide hydrochloric acid salt; host or cells: chemically synthesised peptide. Conditions: binding of 125I-labeled compound 23 to A β 1-40 aggregates, room temperature, three hours. On the procedure:
Synthetic A β peptides in a solution form undergo spontaneous aggregation in a test tube, to thereby form aggregates having the same β-sheet structure as that of amyloid aggregates present in a brain suffering from Alzheimer's disease (hereinafter, such a brain is referred to as an “Alzheimer brain”).
After ultrasonication, the mixture was gently stirred at 37° C. for four days, to thereby produce synthetic amyloid β (1-40) aggregates.
Binding test was performed in the following manner. Firstly, PBS (500 μL) and 0.2% BSA/PBS solution (100 μL) were added to test tubes. […] Reaction was initiated by adding a synthetic amyloid β (1-40) aggregates solution (concentration: 500 nmol/L, adjusted by PBS) (200 μL) to each test tube.
These samples were incubated at room temperature for three hours, and each reaction mixture was filtered by means of a cell harvester (M-24R, product of Brandel) by use of a Whatman GF/B filter (product of Whatman). The filter was washed thrice with ice-cooled PBS solution (about 2 mL) containing 0.1-mmol/L ascorbic acid.
Activity values were calculated by means of a GraphPad Prism Ver.

The target in series [2] is T2, Amyloid β (1-40) peptide (Homo sapiens, UniProt P05067).
T2 construct: amyloid β (1-40) peptide hydrochloric acid salt; host or cells: chemically synthesised peptide
T2 sequence (P05067 672-711 limits assumed): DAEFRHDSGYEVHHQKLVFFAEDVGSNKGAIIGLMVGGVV
Briefly: Inhibitory activity on formation of amyloid from amyloid β protein (thioflavin T method). The series is classed as biochemical. Conditions: amyloid β (1-40) 15 μmol/L, PBS(−), room temperature, one day; read-out: Aggregation inhibitory activity IC50 A β 1-40. On the procedure: Amyloid β (1-40) peptide hydrochloric acid salt (product of PEPTIDE […], INC.) (15 μmol/L) and a test substance (1.6, 8, or 40 μmol/L) were incubated in PBS(−) at room temperature for one day. Thereafter, the amount of formed amyloid was measured through the thioflavin T method. […] As is clear from table 3, aggregation of amyloid β (1-40) can be prevented by the compound of the present invention.

The conditions of series [3]: standard substances of liposolubility; values reported in the literature; cited from earlier work.
For series [4] the following is noted: human, in vivo; cited from earlier work.
For series [5] the following is noted: animal PET scanner; cited from earlier work.
Series [6] has as its target T1, synthetic amyloid β (1-40) aggregates. The conditions noted are these: for Bonding amount against amyloid β protein aggregate concentration: presence and absence of normal rat brain homogenate.
Protocol: A brain tissue was removed from a normal rat, and a 5-fold amount of PBS was added to the tissue (wet state). A homogenate was produced from the mixture by use of a homogenizer. To test tubes, PBS (500 μL, in the presence of homogenate or 600 μL, in the absence of homogenate) was added. A rat brain homogenate (100 μL) was added under the presence condition of homogenate. […] Each (200 μL) of the Aβ aggregates solutions of twice-diluted series was added to each test tube, whereby reaction was initiated.
By subtracting a non-specific binding amount from the total binding amount and dividing the difference by the non-specific binding amount, an SN (Signal/Noise) ratio was calculated. The relationship between the SN ratio and amyloid β protein aggregate concentration was investigated (FIG. 2).
Series [7] can be described thus: Distribution in rat body (radioactivity in the brain). Conditions: caudal vein. The class given is in vivo, Wistar male rats. As to the method: Wistar male rats (purchased from Japan SLC, Inc.) were conditioned for seven days, maintaining water and chow (commercial solid chow: F-2, product of Funabashi Farm) ad libitum, and the non-fasting rats were employed in the experiment (8-week-old at experiment).
Each of compound 23, compound 24, and [^125I]-IMPY was dissolved in a solution containing 40 mM ascorbic acid and 0.1% Tween80, to thereby adjust the concentration to 100 μCi/200 μL. Each sample was administered to each rat through the caudal vein under non-anesthetization. […] The brain was cut into the left and right parts, and each part was weighed. The right brain was placed in a vial, and radioactivity was measured by means of a gamma counter. The radioactivity relative to the administration amount was calculated. Specifically, radioactivity of the tissue and that divided by the tissue weight were calculated as % I.D. and % I.D./g-tissue weight, respectively.

The target in series [8] is Whole protein of human Alzheimer lesion origin (temporal cortex) (Homo sapiens, UniProt P05067). Put plainly: Calculation of binding affinity by use of Alzheimer brain. The conditions noted are these: Alzheimer brain homogenate. On the procedure: Whole protein of human Alzheimer lesion origin (temporal cortex), a commercial product of Biochain (US), was employed.
Whole protein of human Alzheimer lesion origin (temporal cortex), sequence (P05067 672-713): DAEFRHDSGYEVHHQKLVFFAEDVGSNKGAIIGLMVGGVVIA
An Alzheimer brain homogenate diluted with PBS was added to each test tube, to thereby initiate reaction.
4.00 (GraphPad Software, Inc.), to thereby calculate binding parameters (Kd, Bmax).

For series [9], the target named is T2, Amyloid β (1-40) peptide. Put plainly: Binding of compound 24 to amyloid β (1-40) aggregated in PBS or dissolved in purified water. Conditions: for Specific binding radioactivity: amyloid β 50 nmol/L. On the procedure: Separately, amyloid β (1-40) peptide HCl salt was dissolved in purified water, to thereby prepare a 100-μmol/L amyloid β (1-40) solution. A CD spectrum of each sample solution (twice diluted) was measured at room temperature (about 25° C.) in a wavelength range of 190 to 250 nm. PBS or purified water was measured as a blank. After measurement, a blank value was subtracted from a CD value of each sample, to thereby correct the base line. From the thus-corrected CD values, secondary structure analysis was performed by means of SELCON3.
Subsequently, binding ability of the compound of the invention to amyloid β (1-40) peptide dissolved in purified water or aggregated in PBS was determined in a manner similar to that employed in Test Example 3. However, a ^125I-labeled compound 24 was employed, and no rat bran homogenate was included. The employed amyloid β concentration was 50 nmol/L at reaction.

Series [10] can be described thus: In vitro metabolism rate by use of liver microsomes, human. The series is classed as in vitro ADME. As to the method:
(§1) Liver microsomes (Pooled human Liver Microsomes, Male CD1 mouse, Male Wistar Rat), which is a commercial product of In Vitro Technologies, were employed.
(§2) Each of compound 23, compound 24, and [^125I]-IMPY was dissolved in Milli Q water, to thereby adjust the concentration to 11 μCi/mL (5 nmol/L).
(§3) To a mixture of 100 mM glucose 6-phosphate and […] NADPH solution, an equal volume of […] magnesium chloride was added. Glucose 6-phosphate dehydrogenase was employed at a final concentration of 10 unit/mL. These components were reconstituted upon use.
(§4) Method: To each of the glass test tubes, […] EDTA/0.33M potassium phosphate buffer (150 μL), Milli Q water (200 μL), 0.005 or 0.5 mg protein/mL microsome suspension (50 μL), and a test substance solution (50 μL) were added. The mixture was preliminarily incubated at 37° C. for two minutes. The above-prepared NADPH-generating system (50 μL) was added, to thereby initiate reaction. At an arbitrary point of time, an equal volume of acetonitrile was added, to thereby terminate the reaction. The reaction mixture (50 μL) was sampled into a glass tube for determining the metabolism amount, and saturated ascorbic acid ethanol solution (25 μL) was added thereto. The sample was developed by means of a reverse phase TLC (Whatman KC18F) with 80% methanol. The TLC was brought into contact with an imaging plate, and radioactivity was detected by means of BAS-1800 (product of Fuji Film Co., Ltd.). The metabolism rate was calculated through analysis by means of GraphPad Prism Ver. 4.00 (GraphPad Software, Inc.).
(In general: Liver microsomes are vesicles of endoplasmic reticulum, rich in cytochrome P450 enzymes.)

Series [11] is described as follows: In vitro metabolism rate by use of liver microsomes, mouse. The class given is in vitro ADME, Male CD1 mouse. As to the method:
as §1, §2, §3, §4

A short description of series [12]: In vitro metabolism rate by use of liver microsomes, rat. The series is classed as in vitro ADME, Male Wistar Rat. On the procedure:
as §1, §2, §3, §4

Where [13] appears, read: read-out: Inhibitory activity (n = 3) IC50 Mean ± S.D.

T1 sequence (P05067 672-711 limits assumed): as the sequence (P05067 672-711 limits assumed) above

One may read the IC50 as the concentration needed to halve the response being measured. “5-[4-(6-Iodoimidazo[1,2-a]pyridin-2-yl)phenyl]-1,3-oxazole [Example 1]”: the IC50 came out at 0.00123 ± 8.42e-05 µM in series [1] (setting [13]) and 29.4 µM on Amyloid β (1-40) peptide [2].
For the compound `CC(=O)Nc1ccc(O)cc1` [Acetaminophen], the LogD7.4 in series [3] is given as 0.51.
With `Oc1ncnc2[nH]ncc12` [Allopurinol], the LogD7.4 in series [3] is recorded as −0.44.
As to `c1ccc(-c2ccc(C(c3ccccc3)n3ccnc3)cc2)cc1` (stereo not shown) [Bifonazole], in [3], the LogD7.4 is recorded as 4.77.
Regarding `CN/C(=N/CCSCc1nc[nH]c1C)NC#N` [Cimetidine], in series [3], the LogD7.4 is recorded as 0.35.
Consider `Clc1cccc(Cl)c1N=C1NCCN1` [Clonidine], for which, in series [3], the LogD7.4 is 0.62.
In the case of `Nc1c(/N=N/c2ccc(-c3ccc(/N=N/c4cc(S(=O)(=O)O)c5ccccc5c4N)cc3)cc2)cc(S(=O)(=O)O)c2ccccc12` [Congo Red, reference compound], the IC50 in series [1] was greater than 5 µM.
Take `Ic1ccc2nc(-c3ccc(-c4cc[nH]n4)cc3)cn2c1` [Example 3, 6-Iodo-2-[4-(1H-3-pyrazolyl)phenyl]imidazo[1,2-a]pyridine]: the IC50 in series [1] is 0.00972 ± 0.00144 µM; at Amyloid β (1-40) peptide [2] it was 22.3 µM.
Take `CC(=C(C#N)C#N)c1ccc2cc(N(C)CCF)ccc2c1` [FDDNP, reference compound]: the IC50 in series [1] (setting [13]) worked out at 1.05 ± 0.0488 µM.
`C[C@]12CC[C@H]3[C@@H](CCC4=CC(=O)CC[C@@]43C)[C@@H]1CC[C@@H]2O` [Teststeron]: the LogD7.4 in series [3] is 3.29.
`[11CH3]Nc1ccc(-c2nc3ccc(O)cc3s2)cc1` [^11C-PIB]: in series [4], the “Difference in retention between AD patient groups” value is “at most about two-fold”. Moreover, in series [5], the “Retention time, PS1/APP mice against normal mice” value is reported as “no difference is observed in retention time”.
`CN(C)c1ccc(-c2cn3cc([123I])ccc3n2)cc1` [^123I-IMPY, [^123I]6-iodo-2-(4′-dimethylamino-)phenyl-imidazo[1,2-a]pyridine, reference compound]: the “Bonding amount against amyloid β protein aggregate concentration” value in series [6] is on record as “increase in bonding amount in response to the amyloid β protein aggregate concentration”.
For the compound `[123I]c1ccc2nc(-c3ccc(-c4cc[nH]n4)cc3)cn2c1` [^123I-labeled product of compound 3, [^123I]6-Iodo-2-[4-(1H-3-pyrazolyl)phenyl]imidazo[1,2-a]pyridine], the “SN (Signal/Noise) ratio” value in series [6] (compared with 123I-IMPY, presence and absence of normal rat brain homogenate (FIG. 2)) was “higher SN ratio”. In series [6], the “Bonding amount against amyloid β protein aggregate concentration” value was “increase in bonding amount in response to the amyloid β protein aggregate concentration”.
One may read the Kd as the free concentration of one partner at which half of the binding sites on the other are occupied at equilibrium, for simple one-to-one binding. As to “[^125I]6-Iodo-2-[4-(1H-3-pyrazolyl)phenyl]imidazo[1,2-a]pyridine [Example 24]”, the “Radioactivity in the rat brain Mean ± SD” value in series [7] (2 min after administration) is 0.760 ± 0.036 % I.D./g; in series [7] (5 min after administration), 0.656 ± 0.026 % I.D./g; in series [7] (15 min after administration), 0.373 ± 0.047 % I.D./g; in series [7] (30 min after administration), 0.176 ± 0.009 % I.D./g; in series [7] (60 min after administration) it was 0.053 ± 0.003 % I.D./g; in series [7] (120 min after administration), 0.015 ± 0.002 % I.D./g. The Bmax in series [8] is recorded as 1.59 pmol/mg protein. The dissociation constant (Kd) in series [8] (125I-labeled test compound 0.5 nmol/L) is 0.00405 µM. Moreover, the figures for the Specific binding radioactivity on Amyloid β (1-40) peptide [9] (Solution of amyloid β (1-40) dissolved in purified water) and on Amyloid β (1-40) peptide [9] (Suspension of amyloid β (1-40) aggregated in PBS) were 6300.3 cpm and 125504.4 cpm, respectively. In addition, the “Specific binding to aggregates (suspension) relative to dissolved amyloid β (1-40) (solution)” value on Amyloid β (1-40) peptide [9] (ratio suspension in PBS / solution in purified water) is given as “about 20 times”. In addition, the “Rate of metabolism by liver microsomes” value in series [10] is reported as 0.140 ± 0.057 pmol/min/mg protein; in [11], 0.229 ± 0.061 pmol/min/mg protein; in series [12] it was 0.193 ± 0.058 pmol/min/mg protein.
